Assay results as given in patent US10077236B2, “Azacyclic constrained analogs of FTY720” (The Regents of the University of California, priority 2013, dated 2018).
“Also recorded” adds a separate entry of the source.

Tests used:
SphK2 null MEFs = assay: Sensitivity of SphK2 null MEFs; format: cell-based
Description: (§1) The importance of phosphorylation in the activity of compound 6 was then examined. In this study MEF knockout lines that show the same differential sensitivity to compound 6 relative to its enantiomers as leukemia cells were used (FIG. 10h). […] A phosphate and a non-phosphorylatable analog of compound 6 were then tested.

[1] = tested on: sphingosine-1-phosphate receptors; assay: S1P receptor activation in CHO cells expressing the receptors; format: cell-based; conditions: added to CHO cells expressing the receptors
Description: When the pure phosphates are added to these CHO cells, multiple S1P receptors are activated when the phosphates are present at 1-10 uM. There is no enantiomer-selectivity in the activation of S1P receptors.

[2] = tested on: Sup-B15 BCR-ABL positive human acute lymphoblastic leukemia (ALL) cell line; assay: Cell viability assay, Sup-B15 leukemia cells (flow cytometry, vital dye exclusion); format: cell-based; conditions: for cell death in combination with dasatinib: 72 h
Source text: (§2) Leukemia cell assays: Effects of chemical changes on ability to kill cells as observed in cell viability assays using the BCR-ABL positive human acute lymphoblastic leukemia (ALL) cell line, Sup-B15 are described. Assays using the Sup-B15 cell line were designed to determine efficacy of azacyclic constrained small molecule analogs of FTY720 in killing leukemia cells. Analogs were generated using the synthesis methods mentioned above. Sup-B15 cells were maintained at 2-3 million/mL in RPMI 1640 (by Mediatech™) supplemented with 10% fetal calf serum (by Sigma-Aldrich™), 10 mM Hepes (by Mediatech™), 55 μM β-mercaptoethanol (by Sigma-Aldrich™), 2 mM L-glutamine (by Mediatech™), and antibiotics. BV173, Nalm-6, and Blin-1 were maintained at 1-2 million/mL and CCRF-CEM at less than 500,000/mL in the same medium. BMp190 cells were created by transducing murine bone marrow cells with pMIC-p190 which expresses the p190 isoform of BCR-Abl and human CD4 from an IRES; these cells were kept at 1-2 million/mL in RPMI supplemented as above.
(§3) Flow cytometry: Much of the biological activity presented is shown through flow cytometry data. […] Here, IC50 flow cytometry assays were used. In them, viability was determined at 72 hours by vital dye exclusion [propium iodide or DAPI (4′,6-diamindino-2-phenylindole)]. To measure nutrient receptor expression following exposure to FTY720 and azacyclic constrained analogs of FTY720, surface 4F2hc expression was measured after 3 hours of drug treatment by staining 150,000 cells with phycoerythrin-conjugated mouse anti-human CD98 (by BD Biosciences™). Analysis was restricted to viable cells.
(§4) All samples for the disclosed sets of data were analyzed on a BD LSR II flow cytometer and data analyzed with FlowJo™ software (by Treestar™). IC50's were calculated and statistical tests were performed using GraphPad Prism™.

Blin-1 Ph- ALL cell line = assay: Cell viability assay, Blin-1; format: cell-based, human; conditions: 72 h, vital dye exclusion and flow cytometry; read-out: Mean IC50 (+/- SEM) in cell viability assay, Blin-1 Ph- ALL
Source text: as §2, §3, §4

BV173 Ph+ ALL cell line = assay: Cell viability assay, BV173; format: cell-based, human; conditions: 72 h, vital dye exclusion and flow cytometry; read-out: Mean IC50 (+/- SEM) in cell viability assay, BV173 Ph+ ALL
Source text: as §2, §3, §4

circulating lymphocytes = assay: Lymphocyte sequestration (circulating lymphocytes); format: in vivo, mouse; conditions: number of circulating lymphocytes 12 h after dosage
Source text: (§5) As previously discussed, FTY720 itself cannot be used in cancer patients because phosphorylation of FTY720 by SphKs makes FTY720-P, which acts at S1P receptors to cause bradycardia and immunosuppression (on-target effect for primary use).

[3] = tested on: BCR-Abl+ leukemias compared to other cell types; assay: Ratio of IC50 of compound 6 (177) and its enantiomer compound 5 (39) across cell types; format: cell-based
Source text: Another difference between compound 6 and FTY720 or the enantiomer of compound 6, is that compound 6 has a specific and very high activity to BCR-Abl+ leukemias compared to other cell types. This trend is shown in FIG. 10d by calculating the ratio of 1050 for compound 6 (also called 177) and its enantiomer compound 5 (also called 39). If the drugs are similarly effective a ratio near 1 would be expected, and if compound 6 works better (has a lower 1050), a ratio greater than one as with SupB15s would be expected. […] Finally, it is seen that the Ph+ALL primary patient sample has a ratio greater than 1.

BCR-Abl+ SFO2 cells = assay: Combination with trametinib in BCR-Abl+ SFO2 patient-derived leukemia cells; format: cell-based, human; conditions: cytostatic concentration of trametinib + cytostatic concentration of compound 6
Source text: FIGS. 10n and 10o provide data results from a study of the effectiveness of treating BCR-Abl+ SFO2 cells (10n), and also in BCR-Abl− LAX7R cells (10o), which is a late-stage leukemia resistant to chemotherapy.

human colon cancer cells = assay: Combination with trametinib in human colon cancer cells; format: cell-based
sphingosine kinase 2 = molecular target: T1, sphingosine kinase 2 (Mus musculus, UniProt Q9JIA7); assay: Phosphorylation by sphingosine kinase 2 in cells; format: cell-based
T1 construct: endogenous in cells
T1 sequence (Q9JIA7 1-617): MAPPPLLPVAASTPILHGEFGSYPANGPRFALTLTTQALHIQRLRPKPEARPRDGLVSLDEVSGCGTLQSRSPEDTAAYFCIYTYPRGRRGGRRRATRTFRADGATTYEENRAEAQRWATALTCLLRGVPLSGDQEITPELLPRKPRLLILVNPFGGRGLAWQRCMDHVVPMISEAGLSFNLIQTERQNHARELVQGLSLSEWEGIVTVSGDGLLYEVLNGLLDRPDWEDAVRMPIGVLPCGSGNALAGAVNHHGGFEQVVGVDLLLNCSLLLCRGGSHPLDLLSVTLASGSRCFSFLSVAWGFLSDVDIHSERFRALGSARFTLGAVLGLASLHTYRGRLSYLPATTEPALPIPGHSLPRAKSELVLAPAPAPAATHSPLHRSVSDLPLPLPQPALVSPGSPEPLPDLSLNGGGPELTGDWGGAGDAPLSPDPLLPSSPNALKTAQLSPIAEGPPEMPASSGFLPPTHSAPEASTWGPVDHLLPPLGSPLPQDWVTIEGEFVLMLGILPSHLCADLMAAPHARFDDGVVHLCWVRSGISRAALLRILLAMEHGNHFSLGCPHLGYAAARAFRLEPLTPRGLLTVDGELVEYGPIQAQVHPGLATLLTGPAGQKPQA
Description: as §1

[4] = Mouse heart rate by telemetry; format: in vivo; conditions: telemetry for 24 h after administration of anti-cancer dose
Source text: as §5

CCCCCCCCc1ccc(CO[C@@H]2CN[C@@H](CO)C2)cc1.Cl [Compound 6]
gain of functional activity (SphK2 null MEFs): no longer shows gain of functional activity
activation of sphingosine-1-phosphate receptors [1]: do not activate sphingosine-1-phosphate receptors
cell killing at 72 h ([2]; 1 μM (=0.5×IC50), alone): does not kill
cell death in combination with dasatinib ([2]; 1 μM compound 6 + dasatinib 200 nM): increases cell death
cell viability at 72 h ([2]; 2 μM (1×IC50), alone): significantly reduces cell viability
cell death in combination with dasatinib ([2]; 2 μM compound 6 + dasatinib): increases cell death beyond that caused by compound 6 alone
IC50 ([2]; BCR-Abl+ SupB15 leukemia cell line, read-out: IC50): 2 µM
ability to kill leukemia cells, potency compared in words ([2]; Sup-B15 cell viability assays): activity much greater than compounds 5, 7, and 8; also recorded: enhanced anticancer activity relative to its diasteromeric congeners and to FTY720
killing compared with dasatinib ([2]; both drugs at their maximally active dose): kills better than dasatinib
IC50 (Blin-1 Ph- ALL cell line): 6.9 ± 0.3 µM
IC50 (BV173 Ph+ ALL cell line): 3.8 ± 0.4 µM
lymphocyte sequestration / immunosuppression (circulating lymphocytes): does not cause immunosuppression
ratio of IC50, compound 6 versus its enantiomer compound 5 ([3]; 2 Ph+ ALL lines and BM transduced with BCR-ABL p190 fusion): greater than 1
ratio of IC50, compound 6 versus its enantiomer compound 5 ([3]; 3 Ph- ALL lines): ~1
sensitivity of non-sensitive line after p190 transduction ([3]; CCRF transduced with p190): becomes sensitized to compound 6
ratio of IC50, compound 6 versus its enantiomer compound 5 ([3]; Ph+ALL primary patient sample): greater than 1
cell killing, combination with trametinib (BCR-Abl+ SFO2 cells): kills patient-derived leukemia cells without killing the irradiated stromal cell layer
cell killing, combination of trametinib and compound 6 (human colon cancer cells): can kill human colon cancer cells
cell killing, single agent (human colon cancer cells): do not die
phosphorylation by sphingosine kinase 2 in cells (sphingosine kinase 2): more efficient
effect on heart rate [4]: nor does it decrease heart rate
